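These data come from cells grown in 96-well plates and exposed to compound for 48 hours at five concentrations. TGI: concentration producing complete growth inhibition.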
Columns and labels:
Assay in all cases: NCI anticancer screen, dose series, 48 h
[1] = test system: U251 CNS
[2] = test system: MALME-3M melanoma
[3] = test system: NCI-H23 lung
[4] = test system: CCRF-CEM leukemia
[5] = test system: OVCAR-5 ovarian
[6] = test system: HS 578T breast
[7] = test system: MOLT-4 leukemia
[8] = test system: SR leukemia
[9] = test system: OVCAR-4 ovarian
[10] = test system: MDA-MB-231 breast
[11] = test system: T-47D breast
[12] = test system: NCI-H522 lung
[13] = test system: PC-3 prostate
[14] = test system: HOP-62 NSCLC
[15] = test system: HCT-116 colon
[16] = test system: COLO 205 colon
[17] = test system: CAKI-1 renal
[18] = test system: BT-549 breast
[19] = test system: OVCAR-8 ovarian
[20] = test system: SK-OV-3 ovarian
[21] = test system: EKVX NSCLC
[22] = test system: SF-268 CNS
[23] = test system: K-562 leukemia
[24] = test system: SNB-75 CNS
[25] = test system: RPMI-8226 leukemia
[26] = test system: KM12 colon
[27] = test system: SN12C renal
[28] = test system: MDA-N
[29] = test system: A498 renal
[30] = test system: SK-MEL-28 melanoma
[31] = test system: RXF 393 renal
[32] = test system: TK-10 renal
[33] = test system: OVCAR-3 ovarian
[34] = test system: M14 melanoma
[35] = test system: LOX IMVI melanoma
[36] = test system: UACC-257 melanoma
[37] = test system: SW-620 colon
[38] = test system: NCI/ADR-RES ovarian
[39] = test system: HT29 colon
[40] = test system: SF-539 CNS
[41] = test system: HL-60(TB) leukemia
[42] = test system: SNB-19 CNS
[43] = test system: HCT-15 colon
[44] = test system: NCI-H460 lung
[45] = test system: MCF7 breast
[46] = test system: UO-31 renal
[47] = test system: SK-MEL-5 melanoma
[48] = test system: UACC-62 melanoma
[49] = test system: HOP-92 NSCLC
[50] = test system: A549 NSCLC
[51] = test system: IGROV1 ovarian
[52] = test system: MDA-MB-435
[53] = test system: 786-0 renal
[54] = test system: SK-MEL-2 melanoma
[55] = test system: ACHN renal
[56] = test system: NCI-H226 lung
[57] = test system: DU-145 prostate
[58] = test system: SF-295 CNS
[59] = test system: HCC-2998 colon

For `CC(=O)OC12CC[N+]3(C)CCCCC3C1=Nc1ccccc12` (configuration not stated), the TGI [1] was over 100 µM, the TGI [2] was over 100 µM and the TGI [3] was over 100 µM. For the same compound, the TGI [4] was over 100 µM, the TGI [5] was over 100 µM and the TGI [6] was over 100 µM. The TGI [7] was over 100 µM, the TGI [8] was over 100 µM and the TGI [9] was over 100 µM. The TGI [10] was over 100 µM, the TGI [11] was over 100 µM and the TGI [12] was over 100 µM. The TGI [13] was over 100 µM, the TGI [14] was over 100 µM and the TGI [15] was over 100 µM. It also gave a TGI [16] of over 100 µM, a TGI [17] of over 100 µM and a TGI [18] of over 100 µM. It also gave a TGI [19] of over 100 µM, a TGI [20] of over 100 µM and a TGI [21] of over 100 µM. For the same compound, the TGI [22] was over 100 µM, the TGI [23] was over 100 µM and the TGI [24] was over 100 µM. For the same compound, the TGI [25] was over 100 µM, the TGI [26] was over 100 µM and the TGI [27] was over 100 µM. It also gave a TGI [28] of over 100 µM, a TGI [29] of over 100 µM and a TGI [30] of over 100 µM. It also gave a TGI [31] of over 100 µM, a TGI [32] of over 100 µM and a TGI [33] of over 100 µM. It also gave a TGI [34] of over 100 µM, a TGI [35] of over 100 µM and a TGI [36] of over 100 µM. The TGI [37] was over 100 µM, the TGI [38] was over 100 µM and the TGI [39] was over 100 µM. The TGI [40] was over 100 µM, the TGI [41] was over 100 µM and the TGI [42] was over 100 µM. For the same compound, the TGI [43] was over 100 µM, the TGI [44] was over 100 µM and the TGI [45] was over 100 µM. For the same compound, the TGI [46] was over 100 µM, the TGI [47] was over 100 µM and the TGI [48] was over 100 µM. It also gave a TGI [49] of over 100 µM, a TGI [50] of over 100 µM and a TGI [51] of over 100 µM. It also gave a TGI [52] of over 100 µM, a TGI [53] of over 100 µM and a TGI [54] of over 100 µM. The TGI [55] was over 100 µM, the TGI [56] was over 100 µM and the TGI [57] was over 100 µM. It also gave a TGI [58] of over 100 µM.
Compound `Cc1cccc2c(NCCN(C)C)c3cccc(C(=O)NCCN(C)C)c3nc12` has a TGI [1] of 3.82 µM, a TGI [2] of 1.62 µM and a TGI [3] of 1.3 µM. The TGI [4] was 0.813 µM, the TGI [5] was 14.4 µM and the TGI [6] was 1.82 µM. For the same compound, the TGI [7] was 0.102 µM, the TGI [8] was 0.319 µM and the TGI [9] was over 100 µM. It also gave a TGI [10] of 0.728 µM, a TGI [11] of 19.7 µM and a TGI [12] of 0.114 µM. The TGI [13] was 6.73 µM, the TGI [14] was 3.93 µM and the TGI [15] was 4.87 µM. For the same compound, the TGI [16] was 1.61 µM, the TGI [17] was 4.92 µM and the TGI [18] was 4.55 µM. The TGI [19] was 10.2 µM, the TGI [20] was 27.1 µM and the TGI [21] was 4.29 µM. It also gave a TGI [22] of 2.85 µM, a TGI [23] of 0.065 µM and a TGI [24] of 0.953 µM. For the same compound, the TGI [25] was 0.21 µM, the TGI [26] was 1.04 µM and the TGI [27] was 1.69 µM. For the same compound, the TGI [28] was 0.9 µM, the TGI [29] was 4.06 µM and the TGI [30] was 8.37 µM. For the same compound, the TGI [31] was 2.54 µM, the TGI [32] was 8.94 µM and the TGI [33] was 5.54 µM. It also gave a TGI [59] of 1.33 µM, a TGI [34] of 2.44 µM and a TGI [35] of 1.76 µM. For the same compound, the TGI [36] was 2.47 µM, the TGI [37] was 7.78 µM and the TGI [38] was 11.6 µM. It also gave a TGI [39] of 4.16 µM, a TGI [40] of 0.68 µM and a TGI [41] of 0.637 µM. For the same compound, the TGI [42] was 11.2 µM, the TGI [43] was 13.9 µM and the TGI [44] was 4.08 µM. For the same compound, the TGI [45] was 2.85 µM, the TGI [46] was 1.63 µM and the TGI [47] was 0.962 µM. For the same compound, the TGI [48] was 0.311 µM, the TGI [49] was 1.46 µM and the TGI [50] was 29.2 µM. It also gave a TGI [51] of 6.64 µM, a TGI [52] of 1.1 µM and a TGI [53] of 3.38 µM. The TGI [54] was 1.13 µM, the TGI [55] was 4.33 µM and the TGI [56] was 5.68 µM. The TGI [57] was 3.61 µM and the TGI [58] was 3.77 µM.

— PubChem BioAssay (NCI)
